In brackets after ≈: the same amount, converted by molar mass. Activity calls are given as the source filed them. The calls are words filed in the database; no cut-off is given here.
Assays:
[1] = target: T1, Enoyl-[acyl-carrier-protein] reductase [NADH] (Mycobacterium tuberculosis) (UniProt P9WGR1); assay: Inhibition of InhA in Mycobacterium tuberculosis H37Rv assessed antitubercular activity by measuring inhibition of bacterial growth incubated for 7 days by MABA assay; conditions: time 7.0 day
T1 sequence (whole entry): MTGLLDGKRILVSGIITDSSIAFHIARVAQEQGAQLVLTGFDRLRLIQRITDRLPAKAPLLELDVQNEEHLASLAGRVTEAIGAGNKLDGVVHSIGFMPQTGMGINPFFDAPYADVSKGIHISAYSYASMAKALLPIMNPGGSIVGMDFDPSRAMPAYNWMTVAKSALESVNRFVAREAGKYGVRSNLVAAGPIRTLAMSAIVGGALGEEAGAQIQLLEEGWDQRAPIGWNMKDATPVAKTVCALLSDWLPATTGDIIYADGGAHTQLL

[2] = system: Saccharomyces cerevisiae; assay: Antifungal activity against Saccharomyces cerevisiae assessed as inhibition of fungal growth incubated for 24 hrs by agar well diffusion method; type: functional
[3] = system: Klebsiella aerogenes; assay: Antibacterial activity against Enterobacter aerogenes assessed as inhibition of bacterial growth incubated for 24 hrs by agar well diffusion method; type: functional
[4] = system: Aspergillus niger; assay: Antifungal activity against Aspergillus niger assessed as inhibition of fungal growth incubated for 24 hrs by agar well diffusion method; type: functional
[5] = system: Staphylococcus aureus; assay: Antibacterial activity against Staphylococcus aureus assessed as inhibition of bacterial growth incubated for 24 hrs by agar well diffusion method; type: functional
[6] = system: Candida albicans; assay: Antifungal activity against Candida albicans assessed as inhibition of fungal growth incubated for 24 hrs by agar well diffusion method; type: functional
[7] = system: Escherichia coli; assay: Antibacterial activity against Escherichia coli assessed as inhibition of bacterial growth incubated for 24 hrs by agar well diffusion method; type: functional
[8] = system: Bacillus subtilis; assay: Antibacterial activity against Bacillus subtilis assessed as inhibition of bacterial growth incubated for 24 hrs by agar well diffusion method; type: functional
[9] = system: Salmonella typhi; assay: Antibacterial activity against Salmonella typhi assessed as inhibition of bacterial growth incubated for 24 hrs by agar well diffusion method; type: functional; conditions: Salmonella enterica subsp. enterica serovar Typhi
[10] = system: Salmonella enterica subsp. enterica serovar Abony; assay: Antibacterial activity against Salmonella abony assessed as inhibition of bacterial growth incubated for 24 hrs by agar well diffusion method; type: functional
[11] = system: Bacillus cereus; assay: Antibacterial activity against Bacillus cereus assessed as inhibition of bacterial growth incubated for 24 hrs by agar well diffusion method; type: functional
[12] = system: Shigella boydii; assay: Antibacterial activity against Shigella boydii assessed as inhibition of bacterial growth incubated for 24 hrs by agar well diffusion method; type: functional
[13] = system: Pseudomonas aeruginosa; assay: Antibacterial activity against Pseudomonas aeruginosa assessed as inhibition of bacterial growth incubated for 24 hrs by agar well diffusion method; type: functional

O=C(O)c1cn(C2CC2)c2cc(N3CCNCC3)c(F)cc2c1=O
MIC [1]: 1.56 µM (≈ 0.517 µg/mL)

Clc1ccc(-n2cc(COc3ccc4c(c3)CCC4)nn2)cc1
diameter of the inhibition zone (DIZ) [2]: 8 mm
diameter of the inhibition zone (DIZ) [3]: inactive
diameter of the inhibition zone (DIZ) [4]: inactive
diameter of the inhibition zone (DIZ) [5]: 8 mm
diameter of the inhibition zone (DIZ) [6]: 10 mm
diameter of the inhibition zone (DIZ) [7]: inactive
diameter of the inhibition zone (DIZ) [8]: inactive
diameter of the inhibition zone (DIZ) [9]: inactive
diameter of the inhibition zone (DIZ) [10]: inactive
diameter of the inhibition zone (DIZ) [11]: inactive
diameter of the inhibition zone (DIZ) [12]: inactive
diameter of the inhibition zone (DIZ) [13]: inactive
MIC [1]: > 25 µM

O=C(Cn1cc(COc2ccc3c(c2)CCC3)nn1)Nc1ccc(F)cc1
diameter of the inhibition zone (DIZ) [2]: inactive
diameter of the inhibition zone (DIZ) [3]: inactive
diameter of the inhibition zone (DIZ) [4]: inactive
diameter of the inhibition zone (DIZ) [5]: 13 mm
diameter of the inhibition zone (DIZ) [6]: 13 mm
diameter of the inhibition zone (DIZ) [7]: inactive
diameter of the inhibition zone (DIZ) [8]: inactive
diameter of the inhibition zone (DIZ) [9]: inactive
diameter of the inhibition zone (DIZ) [10]: inactive
diameter of the inhibition zone (DIZ) [11]: inactive
diameter of the inhibition zone (DIZ) [12]: 11 mm
diameter of the inhibition zone (DIZ) [13]: inactive
MIC [1]: > 25 µM

COc1cccc(NC(=O)Cn2cc(COc3ccc4c(c3)CCC4)nn2)c1
diameter of the inhibition zone (DIZ) [2]: inactive
diameter of the inhibition zone (DIZ) [3]: inactive
diameter of the inhibition zone (DIZ) [4]: inactive
diameter of the inhibition zone (DIZ) [5]: inactive
diameter of the inhibition zone (DIZ) [6]: inactive
diameter of the inhibition zone (DIZ) [7]: inactive
diameter of the inhibition zone (DIZ) [8]: inactive
diameter of the inhibition zone (DIZ) [9]: inactive
diameter of the inhibition zone (DIZ) [10]: inactive
diameter of the inhibition zone (DIZ) [11]: inactive
diameter of the inhibition zone (DIZ) [12]: 15 mm
diameter of the inhibition zone (DIZ) [13]: inactive
MIC [1]: > 25 µM

O=C(Cn1cc(COc2ccc3c(c2)CCC3)nn1)Nc1ccc(Cl)cc1
diameter of the inhibition zone (DIZ) [2]: 10 mm
diameter of the inhibition zone (DIZ) [3]: inactive
diameter of the inhibition zone (DIZ) [4]: inactive
diameter of the inhibition zone (DIZ) [5]: 8 mm
diameter of the inhibition zone (DIZ) [6]: 15 mm
diameter of the inhibition zone (DIZ) [7]: inactive
diameter of the inhibition zone (DIZ) [8]: inactive
diameter of the inhibition zone (DIZ) [9]: inactive
diameter of the inhibition zone (DIZ) [10]: inactive
diameter of the inhibition zone (DIZ) [11]: inactive
diameter of the inhibition zone (DIZ) [12]: inactive
diameter of the inhibition zone (DIZ) [13]: inactive
MIC [1]: > 25 µM

COc1ccc(NC(=O)Cn2cc(COc3ccc4c(c3)CCC4)nn2)cc1
diameter of the inhibition zone (DIZ) [2]: inactive
diameter of the inhibition zone (DIZ) [3]: inactive
diameter of the inhibition zone (DIZ) [4]: inactive
diameter of the inhibition zone (DIZ) [5]: inactive
diameter of the inhibition zone (DIZ) [6]: inactive
diameter of the inhibition zone (DIZ) [7]: inactive
diameter of the inhibition zone (DIZ) [8]: inactive
diameter of the inhibition zone (DIZ) [9]: inactive
diameter of the inhibition zone (DIZ) [10]: inactive
diameter of the inhibition zone (DIZ) [11]: inactive
diameter of the inhibition zone (DIZ) [12]: inactive
diameter of the inhibition zone (DIZ) [13]: inactive
MIC [1]: > 25 µM

Cc1ccc([N+](=O)[O-])cc1NC(=O)Cn1cc(COc2ccc3c(c2)CCC3)nn1
diameter of the inhibition zone (DIZ) [2]: inactive
diameter of the inhibition zone (DIZ) [3]: 12 mm
diameter of the inhibition zone (DIZ) [4]: inactive
diameter of the inhibition zone (DIZ) [5]: inactive
diameter of the inhibition zone (DIZ) [6]: inactive
diameter of the inhibition zone (DIZ) [7]: inactive
diameter of the inhibition zone (DIZ) [8]: inactive
diameter of the inhibition zone (DIZ) [9]: inactive
diameter of the inhibition zone (DIZ) [10]: inactive
diameter of the inhibition zone (DIZ) [11]: inactive
diameter of the inhibition zone (DIZ) [12]: 9 mm
diameter of the inhibition zone (DIZ) [13]: 9 mm
MIC [1]: > 25 µM

Cc1ccc(NC(=O)Cn2cc(COc3ccc4c(c3)CCC4)nn2)c(C)c1
diameter of the inhibition zone (DIZ) [2]: inactive
diameter of the inhibition zone (DIZ) [3]: inactive
diameter of the inhibition zone (DIZ) [4]: inactive
diameter of the inhibition zone (DIZ) [5]: inactive
diameter of the inhibition zone (DIZ) [6]: inactive
diameter of the inhibition zone (DIZ) [7]: inactive
diameter of the inhibition zone (DIZ) [8]: inactive
diameter of the inhibition zone (DIZ) [9]: inactive
diameter of the inhibition zone (DIZ) [10]: inactive
diameter of the inhibition zone (DIZ) [11]: inactive
diameter of the inhibition zone (DIZ) [12]: 13 mm
diameter of the inhibition zone (DIZ) [13]: inactive
MIC [1]: > 25 µM

Cc1ccc(-n2cc(COc3ccc4c(c3)CCC4)nn2)cc1
diameter of the inhibition zone (DIZ) [2]: inactive
diameter of the inhibition zone (DIZ) [3]: inactive
diameter of the inhibition zone (DIZ) [4]: inactive
diameter of the inhibition zone (DIZ) [5]: inactive
diameter of the inhibition zone (DIZ) [6]: 12 mm
diameter of the inhibition zone (DIZ) [7]: inactive
diameter of the inhibition zone (DIZ) [8]: inactive
diameter of the inhibition zone (DIZ) [9]: inactive
diameter of the inhibition zone (DIZ) [10]: inactive
diameter of the inhibition zone (DIZ) [11]: inactive
diameter of the inhibition zone (DIZ) [12]: inactive
diameter of the inhibition zone (DIZ) [13]: inactive
MIC [1]: > 25 µM

CC[C@@H](CO)NCCN[C@@H](CC)CO
MIC [1]: 3.12 µM (≈ 0.638 µg/mL)

O=C(Cn1cc(COc2ccc3c(c2)CCC3)nn1)Nc1ccc(Br)cc1
diameter of the inhibition zone (DIZ) [2]: 12 mm
diameter of the inhibition zone (DIZ) [3]: 12 mm
diameter of the inhibition zone (DIZ) [4]: inactive
diameter of the inhibition zone (DIZ) [5]: inactive
diameter of the inhibition zone (DIZ) [6]: inactive
diameter of the inhibition zone (DIZ) [7]: inactive
diameter of the inhibition zone (DIZ) [8]: inactive
diameter of the inhibition zone (DIZ) [9]: inactive
diameter of the inhibition zone (DIZ) [10]: inactive
diameter of the inhibition zone (DIZ) [11]: inactive
diameter of the inhibition zone (DIZ) [12]: 13 mm
diameter of the inhibition zone (DIZ) [13]: 5 mm
MIC [1]: > 25 µM

CCc1ccc(-n2cc(COc3ccc4c(c3)CCC4)nn2)cc1
diameter of the inhibition zone (DIZ) [3]: inactive
diameter of the inhibition zone (DIZ) [4]: inactive
diameter of the inhibition zone (DIZ) [5]: 7 mm
diameter of the inhibition zone (DIZ) [6]: 13 mm
diameter of the inhibition zone (DIZ) [7]: inactive
diameter of the inhibition zone (DIZ) [8]: inactive
diameter of the inhibition zone (DIZ) [9]: inactive
diameter of the inhibition zone (DIZ) [10]: inactive
diameter of the inhibition zone (DIZ) [11]: inactive
diameter of the inhibition zone (DIZ) [12]: inactive
diameter of the inhibition zone (DIZ) [13]: inactive
MIC [1]: > 25 µM

O=C(Cn1cc(COc2ccc3c(c2)CCC3)nn1)Nc1ccccc1Cl
diameter of the inhibition zone (DIZ) [2]: inactive
diameter of the inhibition zone (DIZ) [3]: inactive
diameter of the inhibition zone (DIZ) [4]: inactive
diameter of the inhibition zone (DIZ) [5]: inactive
diameter of the inhibition zone (DIZ) [6]: inactive
diameter of the inhibition zone (DIZ) [7]: inactive
diameter of the inhibition zone (DIZ) [8]: inactive
diameter of the inhibition zone (DIZ) [9]: inactive
diameter of the inhibition zone (DIZ) [10]: inactive
diameter of the inhibition zone (DIZ) [11]: inactive
diameter of the inhibition zone (DIZ) [13]: inactive
MIC [1]: > 25 µM

Cc1ccccc1NC(=O)Cn1cc(COc2ccc3c(c2)CCC3)nn1
diameter of the inhibition zone (DIZ) [2]: inactive
diameter of the inhibition zone (DIZ) [3]: inactive
diameter of the inhibition zone (DIZ) [4]: inactive
diameter of the inhibition zone (DIZ) [5]: inactive
diameter of the inhibition zone (DIZ) [6]: inactive
diameter of the inhibition zone (DIZ) [7]: inactive
diameter of the inhibition zone (DIZ) [8]: inactive
diameter of the inhibition zone (DIZ) [9]: inactive
diameter of the inhibition zone (DIZ) [10]: inactive
diameter of the inhibition zone (DIZ) [11]: inactive
diameter of the inhibition zone (DIZ) [12]: 11 mm
diameter of the inhibition zone (DIZ) [13]: inactive
MIC [1]: > 25 µM

CCc1ccc(NC(=O)Cn2cc(COc3ccc4c(c3)CCC4)nn2)cc1
diameter of the inhibition zone (DIZ) [2]: inactive
diameter of the inhibition zone (DIZ) [3]: inactive
diameter of the inhibition zone (DIZ) [4]: inactive
diameter of the inhibition zone (DIZ) [5]: inactive
diameter of the inhibition zone (DIZ) [6]: inactive
diameter of the inhibition zone (DIZ) [7]: inactive
diameter of the inhibition zone (DIZ) [8]: inactive
diameter of the inhibition zone (DIZ) [9]: inactive
diameter of the inhibition zone (DIZ) [10]: inactive
diameter of the inhibition zone (DIZ) [11]: inactive
diameter of the inhibition zone (DIZ) [12]: 11 mm
diameter of the inhibition zone (DIZ) [13]: inactive
MIC [1]: > 25 µM

Cc1cc([N+](=O)[O-])ccc1NC(=O)Cn1cc(COc2ccc3c(c2)CCC3)nn1
diameter of the inhibition zone (DIZ) [2]: inactive
diameter of the inhibition zone (DIZ) [3]: inactive
diameter of the inhibition zone (DIZ) [4]: inactive
diameter of the inhibition zone (DIZ) [5]: inactive
diameter of the inhibition zone (DIZ) [6]: inactive
diameter of the inhibition zone (DIZ) [7]: inactive
diameter of the inhibition zone (DIZ) [8]: inactive
diameter of the inhibition zone (DIZ) [9]: inactive
diameter of the inhibition zone (DIZ) [10]: inactive
diameter of the inhibition zone (DIZ) [11]: inactive
diameter of the inhibition zone (DIZ) [13]: inactive
MIC [1]: > 25 µM

From ChEMBL document CHEMBL4699525, “Design and synthesis of new indanol-1,2,3-triazole derivatives as potent antitubercular and antimicrobial agents” (Bioorg Med Chem Lett, 2020)
